Measured values: patent US7169756B2, “Streptogramin antibiotics” (priority 2005, dated 2007)
Bridge positions count the residues as written; N and C are the ends. Square brackets hold non-standard residues; d marks the D form. Peptide text beside a SMILES is read from it. * marks the point of attachment. Picolinoyl(3-OH) = O=C(c1ncccc1O)*; Phg = N[CH](C(=O)O)c1ccccc1; Abu = CC[CH](N)C(=O)O; Dap = NC[CH](N)C(=O)O

Key:
E. coli BAS901/pUCVgb = experiment: disk assay, zone of growth inhibition; assay type: cell-based, Escherichia coli; conditions: Vgb constitutively expressed
Source text: (§1) A hyperpermeable E. coli strain, E. coli BAS901, harboring a plasmid constitutively expressing Vgb was created for in vivo studies. The plasmids pVGB, described previously in [14], and […] were digested with Xbal and BamHI, to yield an approximately 1 kb fragment containing a ribosomal binding site upstream of vgb, and linearized pUC19 backbone, respectively. The vgb fragment was then subcloned into the linearized pUC19 backbone downstream of pLac yielding pUC19-VGB. Both pUC19-VGB and pUC19 were transformed E. coli BAS901.
(§2) The antibiotic activity of the peptides synthesized in this study was initially assayed using a disk assay where samples were applied to sterile paper disks placed on a fresh lawn of bacterial culture on appropriate agar plates as required by the organism. These were then incubated for 16 hr at 37° C. and the zone of growth inhibition surrounding the disks recorded. For quantitative assessment of antibiotic activity in liquid culture, the minimal inhibitory concentration (MIC) of peptides was determined by serial dilution studies. The peptides and standard antibiotics were dissolved in DMSO and the final concentration of DMSO in the liquid cultures was 5%. Both S. aureus RN4220 and E. coli BAS901 were able to grow efficiently at this level of DMSO.
(§3) Crude material from the initial synthesis reactions was used to test the potential of the analogues as antibiotics in susceptibility assays where a solution of the compound was placed on a paper disk on a lawn of bacteria. As described above, E. coli BAS901 is deficient in the Imp/OstA protein, an outer membrane protein, involved in cell envelope biogenesis (1, 5). […] The antibiotic activity of the peptides synthesized in this study was initially assayed using a disk assay where samples were applied to sterile paper disks placed on a fresh lawn of bacterial culture on Tryptic Soya, Luria Broth, or Brain Heart Infusion Agar plates. These were then incubated for 16 hrs at 37° C. and the zone of growth inhibition surrounding the disks recorded.

E. coli BAS901/pUC19 = experiment: disk assay, zone of growth inhibition; assay type: cell-based, Escherichia coli
Source text: as §1, §2, §3

in vitro translation = experiment: In Vitro Translation Assay; assay type: biochemical; conditions: FIG. 6; 15 min preincubation, 1 hr at 37° C., 5% DMSO; concentration not given
Method: Inhibition of translation was monitored using an ActivePro In Vitro Translation Kit from Ambion. Briefly, a reaction mixture was prepared as per the manufacturer's instructions that contained all of the constituents necessary (including [^35S]-methionine) except for DNA template. These mixtures were then preincubated for 15 min at room temperature in the presence or absence of various antibiotics. Subsequent to the preincubation period, a control template containing a chloramphenicol acetyltransferase gene under control of a bacteriophage T7 promoter was added and the reaction carried out for 1 hr at 37° C. Due to the insoluble nature of some of the antibiotics, the final DMSO concentration in each reaction including controls was maintained at 5% (v/v). Aliquots were taken after 1 hr, and separated on SDS polyacrylamide gels. The efficiency of translation of ^35S-labeled […] was analyzed and quantified using a Typhoon 9200 variable mode imager (Image-Quant 5.2 software).

Human red blood cells = experiment: Hemolysis Assay; assay type: cell-based; conditions: 3 and 9 hr at 37° C., A412 of supernatant, gramicidin 30 μg/ml
Method: Human red blood cells were freshly harvested, washed with 0.85% saline solution with 5 mM EDTA and resuspended in the same solution to an A412 of 0.6. The hemolysis assay was performed in 1.5 ml Eppendorf tubes with the addition of either 5 in DMSO, saline, gramicidin (final concentration 30 μg/ml), or DMSO (5% final), for both 3 and 9 hr at 37° C. with occasion gentle mixing. The mixtures were then centrifuged and the A412 of the supernatant measured.

Question: How did the “Zone of Inhibition” value (E. coli BAS901/pUCVgb) turn out when CCC1NC(=O)C(NC(=O)c2ncccc2O)CNC(=O)C(c2ccccc2)NC(=O)C2CCCN2C(=O)C(Cc2ccccc2)NC(=O)C2CCCN2C1=O (stereo not drawn) [Compound 8] ({Picolinoyl(3-OH)}-[Dap][Abu]PFP[Phg]; lactam 1-C; configuration not given here) was run?
Answer: The value was “n.i”.

Question: What about the “Zone of Inhibition” value (E. coli BAS901/pUC19) of the same compound?
Answer: The value was “no antibacterial activity and n.i”.

Question: How did the “inhibition of in vitro translation” value (in vitro translation) turn out when CCN(CC)CCS(=O)(=O)[C@@H]1CCN2C(=O)c3coc(n3)CC(=O)C[C@H](O)/C=C(C)/C=C/CNC(=O)/C=C/[C@@H](C)[C@@H](C(C)C)OC(=O)[C@@H]12 [dalfopristin] was run?
Answer: The value was “did block”.

Question: Which hemolytic activity (Human red blood cells) does the source give for gramicidin S here?
Answer: The hemolytic activity was “lysed cells rapidly”.

Question: CC[C@H]1OC(=O)[C@H](C)[C@@H](O[C@H]2C[C@@](C)(OC)[C@@H](O)[C@H](C)O2)[C@H](C)[C@@H](O[C@@H]2O[C@H](C)C[C@H](N(C)C)[C@H]2O)[C@](C)(O)C[C@@H](C)C(=O)[C@H](C)[C@@H](O)[C@]1(C)O [erythromycin] was tested. Which “inhibition of in vitro translation” value (in vitro translation) did it give?
Answer: Its value is “did block”.

Question: Which “inhibition of in vitro translation” value (in vitro translation) does the source give for O=C(N[C@H](CO)[C@H](O)c1ccc([N+](=O)[O-])cc1)C(Cl)Cl [chloramphenicol] here?
Answer: The value was “did block”.
